The values below come from publication PMC12463120, “Phenylalanine‐Based DNA‐Encoded Chemical Libraries for the Discovery of Potent and Selective Small Organic Ligands Against Markers of Cancer and Immune Cells” (Advanced Science, 2025).

SMILES strings stand for the structures.

In experiment [1] the target is T1, PSMA (Homo sapiens, UniProt Q04609).
T1 construct: Avi-tag; made in house; host or cells: CHO cells
Kind of experiment: Fluorescence polarization (FP) affinity against PSMA. In kind it is binding. Conditions: fluoresceinated compounds. Here is the method:
(§1) Hits obtained from FM‐DEL1 (A1452 and A3113) and FM‐DEL2 (A3113/B423) were re‐synthesized as stereo‐chemically pure off‐DNA compounds derivatized with a C6 linker featuring a fluorescein moiety (coupled to fluorescein isothiocyanate‐FITC) (compounds 1–6) [Figure 2E]. The binding affinity against PSMA and GCP3 (KD) of fluoresceinated compounds 1–6 was measured by fluorescence polarization (FP). […] The superiority of compound 5 (S‐configuration) in binding PSMA over compound 6 (R‐configuration) was confirmed by molecular docking studies [Figure S48, Supporting Information]. […] The presence of the sole building block A3113 on the 3‐iodo‐phenylalanine scaffold in the S‐configuration gives adequate selectivity for PSMA over GCP3. The addition of the second building block (B423) enhances both affinity and selectivity for the target.
Selection results were decoded with C++^[ [61] ^] and visualized using MATLAB R2019b (MathWorks). EFs were calculated by dividing the DNA sequence counts for each hit compound by the average DNA sequence count from the corresponding DEL screening. Additionally, Z‐score values were calculated following methods previously published,^[ [60] ^] as present in Supporting Information. […] Affinities of fluorescein‐bearing hits were determined by FP or ELISA measurements. […] Binding kinetics were assessed on a Biacore X100 instrument with the target protein immobilized on a CM5 chip at 4′000 RUs. Cell binding of fluorescent ligands was evaluated using flow cytometry against antigen‐positive and antigen‐negative (wild‐type) cancer cells. in vitro tissue uptake of ^177Lu‐labelled DOTAGA PSMA‐radioligands was measured via autoradiography. […]
(§2) The protein was then concentrated using Vivaspin® 20 centrifugal concentrators (30’000 Da molecular weight cutoff, Sartorius, #VS2012) and then purified by SEC or PD-10 column. The fractions were measured (absorption at 280 nm) on a Nanodrop 2000 Spectrophotometer to combine protein-containing fractions. […]
(§3) 2.11 Fluorescence polarization (FP) measurements with fluoresceine-labelled […]

Experiment [2] deals with T2, GCP3 (Homo sapiens, UniProt Q9Y3Q0).
T2 construct: Avi-tag; made in house; host or cells: CHO cells
T2 sequence (Q9Y3Q0 whole entry): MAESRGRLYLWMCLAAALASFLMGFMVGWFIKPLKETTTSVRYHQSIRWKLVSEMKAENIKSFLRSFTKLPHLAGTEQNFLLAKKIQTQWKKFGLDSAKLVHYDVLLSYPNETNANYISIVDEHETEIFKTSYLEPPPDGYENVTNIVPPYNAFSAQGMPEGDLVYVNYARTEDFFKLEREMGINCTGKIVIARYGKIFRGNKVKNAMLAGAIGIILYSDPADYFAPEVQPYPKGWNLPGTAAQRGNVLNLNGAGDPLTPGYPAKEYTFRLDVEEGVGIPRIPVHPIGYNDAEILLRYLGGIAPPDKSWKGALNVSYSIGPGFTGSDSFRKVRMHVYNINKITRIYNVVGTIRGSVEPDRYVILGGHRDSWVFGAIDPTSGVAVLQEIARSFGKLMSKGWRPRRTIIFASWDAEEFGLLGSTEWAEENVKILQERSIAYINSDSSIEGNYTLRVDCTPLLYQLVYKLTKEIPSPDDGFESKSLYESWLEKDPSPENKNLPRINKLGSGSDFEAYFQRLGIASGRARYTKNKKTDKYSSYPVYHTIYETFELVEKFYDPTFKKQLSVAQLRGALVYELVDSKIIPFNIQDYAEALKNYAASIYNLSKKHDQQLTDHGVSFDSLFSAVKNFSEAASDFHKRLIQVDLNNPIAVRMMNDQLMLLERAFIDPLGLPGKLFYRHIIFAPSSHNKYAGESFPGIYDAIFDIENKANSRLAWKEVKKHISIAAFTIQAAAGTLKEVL
Kind of experiment: Fluorescence polarization (FP) affinity against GCP3. The class given is binding. Conditions: fluoresceinated compounds. Here is the method: as §1, with “The addition of the second building block (B423) enhances both affinity and selectivity for the target.” left out
Selection results were decoded with C++^[ [61] ^] and visualized using MATLAB R2019b (MathWorks). EFs were calculated by dividing the DNA sequence counts for each hit compound by the average DNA sequence count from the corresponding DEL screening. Additionally, Z‐score values were calculated following methods previously published,^[ [60] ^] as present in Supporting Information. […] Affinities of fluorescein‐bearing hits were determined by FP or ELISA measurements. […] Binding kinetics were assessed on a Biacore X100 instrument with the target protein immobilized on a CM5 chip at 4′000 RUs. […]
as §3

The test system of experiment [3] is HT-1080.hPSMA tumor cells. Kind of experiment: Flow cytometry on HT-1080.hPSMA cells. The class given is cell-based. The following applies: 250 nM. Here is the method: (§4) Selection results were decoded with C++^[ [61] ^] and visualized using MATLAB R2019b (MathWorks). EFs were calculated by dividing the DNA sequence counts for each hit compound by the average DNA sequence count from the corresponding DEL screening. Additionally, Z‐score values were calculated following methods previously published,^[ [60] ^] as present in Supporting Information. Hit compounds with high EFs in the target protein selections and low EFs in the negative controls (anti‐target and streptavidin selections) were selected for hit validation activities. All compounds were synthesized using either solid‐phase peptide synthesis or solution‐phase methodologies. Affinities of fluorescein‐bearing hits were determined by FP or ELISA measurements. […] ACP3 colorimetric inhibition assay was performed with serially diluted compounds at a fixed concentration (5 mM in PBS) of para‐nitrophenyl phosphate as substrate. Binding kinetics were assessed on a Biacore X100 instrument with the target protein immobilized on a CM5 chip at 4′000 RUs. Cell binding of fluorescent ligands was evaluated using flow cytometry against antigen‐positive and antigen‐negative (wild‐type) cancer cells. in vitro tissue uptake of ^177Lu‐labelled DOTAGA PSMA‐radioligands was measured via autoradiography. Prism 9 software (GraphPad Software) was used for data analysis of FP, ELISA, PD‐10, SPR, and enzymatic assay measurements. SPR sensograms were fitted with the Biacore X100 Evaluation Software. Flow cytometry data was processed with the FlowJo 10.4 software.
HT1080.hPSMA and PC3.hACP3 cell lines were generated by lentiviral transduction on wild type cells (HT1080.wt and PC3.wt), according to published procedures9. […]
Cancer cells were detached with an Accutase® cell detachment solution, resuspended in a standard culture medium, and transferred to falcon tubes. Cells were counted and centrifuged at 400 rcf for 3 min. […] Data were acquired halting the measurement at 10´ 000 events on a Cytoflex S flow cytometer (Beckman Coulter), and analyzed using the FlowJo software v10 (BD Biosciences). […]
In general terms: A flow cytometer gives signals particle by particle.

In experiment [4] the target is T3, recombinant human ACP3 (Homo sapiens, UniProt P15309).
T3 construct: made in house; host or cells: CHO cells
T3 sequence (P15309 33-386): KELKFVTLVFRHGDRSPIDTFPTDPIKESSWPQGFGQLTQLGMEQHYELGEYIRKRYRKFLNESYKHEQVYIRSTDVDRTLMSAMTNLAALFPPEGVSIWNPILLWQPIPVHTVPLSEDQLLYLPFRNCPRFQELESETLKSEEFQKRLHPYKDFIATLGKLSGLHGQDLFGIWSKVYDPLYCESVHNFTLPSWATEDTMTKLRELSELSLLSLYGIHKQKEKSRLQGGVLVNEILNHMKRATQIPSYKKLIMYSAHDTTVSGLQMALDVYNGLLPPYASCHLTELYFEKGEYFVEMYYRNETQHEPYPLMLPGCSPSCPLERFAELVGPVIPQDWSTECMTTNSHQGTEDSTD
Kind of experiment: Fluorescence polarization (FP) affinity against human ACP3. The class given is binding. The following applies: PSMA ligands as negative controls. Here is the method: as §4, with “SPR sensograms were fitted with the Biacore X100 Evaluation Software. Flow cytometry data was processed with the FlowJo 10.4 software.” left out
as §2
Protein dissolved in PBS or HEPES buffer was incubated for 30-60 min with 5 equiv. of EZ-LinkTM NHS-LC-Biotin (Thermo Fisher Scientific, #21336). […] The fractions were measured (absorption at 280 nm) on a Nanodrop 2000 Spectrophotometer to combine protein-containing fractions. […]
as §3

The target of experiment [5] is T4, human CAIX (hCAIX) (Homo sapiens, UniProt Q16790).
T4 construct: made in house; host or cells: CHO cells
Kind of experiment: Fluorescence polarization (FP) affinity against hCAIX. In kind it is binding. Conditions: fluorescein derivatives. Background: Fluorescence polarisation rises when a labelled molecule tumbles more slowly, as on binding a larger partner.
Method: A dilution series of target proteins (i.e., PSMA, GCP3, CAIX, CAII) in the respective formulation buffer were separately prepared in a black 384-well plate (non-binding Greiner small volume plate). Test compounds functionalized with fluorescein were diluted to a concentration between 5 and 10 nM (5 μL) and incubated for 15 min with the protein (final volume corresponding to 10 µL). The fluorophore was excited at 485 nm, and anisotropy was measured at 535 nm on a Spectra Max Paradigm multimode plate reader (Tecan). The experiments were performed in triplicate. KD values measured using this FP method can differ from dissociation constants obtained by other physical methods (e.g., surface plasmon resonance, see section below).

Experiment [6] concerns the target T5, hCAIX (Homo sapiens, UniProt Q16790).
T5 construct: made in house; host or cells: CHO cells
Kind of experiment: Surface plasmon resonance (SPR) on hCAIX. The class given is binding. Conditions: for Kd: 500 nM to 250 nM, CM5 chip. Here is the method: 2.14 Surface plasmon resonance (SPR)
SPR measurements were performed on a Biacore X100. Human recombinant ACP3 or CAIX were immobilized on a CM5 chip (Cytiva, #BR100012, both flow cells), reaching ~4000 RUs, using the EDC/NHS protocol provided by the manufacturer. The target protein immobilized on the reference flow cell was treated with denaturing solution (0.85% H3PO4, 10 mM NaOH, and 50 mM HCl). PBS (pH 7.4) was used as running buffer. Test compounds were injected at different concentrations in running buffer, according to a multicycle analysis with the following settings: 120 seconds contact time and 5´000 seconds (CAIX measurements) or 15´ 000 seconds (ACP3 measurements) dissociation time at a flow rate of 10 μL/min. Sensograms were plotted with GraphPad Prism (version 9, GraphPad Software) and fitted using the Biacore X100 Evaluation Software. […]
30 min at rt and washed with PBS (3 x 200 μL/well). The immobilized protein was incubated for 30 min in the dark with serial dilution of FITC-labelled compounds and washed with PBS (3 x 200 μL/well). A solution of rabbit polyclonal FITC antibody-horseradish peroxidase (anti-FITC-HRP, Abcam, #ab196968) 0.25 μg/mL in 2% milk-PBS was added to each well (100 μL/well) and incubated for additional 30 min in the dark at rt. Each well was washed with PBS 0.1% Tween (3 x 200 μL/ well) and with PBS (3 x 200 μL/ well). The substrate 3,3′,5,5′ -tetramethylbenzidine (TMB, Sigma Aldrich #T0440) was added (100 μL /well) and developed in the dark for 0.5-1 min. The reaction was stopped by adding 50 μL of an aqueous solution of H2SO4 1M. The absorbance was measured at 450 nm (reference level, 620–650 nm) with a Spark multimode microplate reader (Tecan Life Sciences). The experiments were […]
Background: SPR reads the build-up and loss of mass on a sensor chip optically.

Experiment [7] deals with SK-RC-52 renal cell carcinoma cells. Kind of experiment: Flow cytometry on SK-RC-52 cells. The class given is cell-based. Conditions: 100 nM.

One may read the Kd as the free concentration of one partner at which half of the binding sites on the other are occupied at equilibrium, for simple one-to-one binding.

T1 sequence (Q04609 whole entry): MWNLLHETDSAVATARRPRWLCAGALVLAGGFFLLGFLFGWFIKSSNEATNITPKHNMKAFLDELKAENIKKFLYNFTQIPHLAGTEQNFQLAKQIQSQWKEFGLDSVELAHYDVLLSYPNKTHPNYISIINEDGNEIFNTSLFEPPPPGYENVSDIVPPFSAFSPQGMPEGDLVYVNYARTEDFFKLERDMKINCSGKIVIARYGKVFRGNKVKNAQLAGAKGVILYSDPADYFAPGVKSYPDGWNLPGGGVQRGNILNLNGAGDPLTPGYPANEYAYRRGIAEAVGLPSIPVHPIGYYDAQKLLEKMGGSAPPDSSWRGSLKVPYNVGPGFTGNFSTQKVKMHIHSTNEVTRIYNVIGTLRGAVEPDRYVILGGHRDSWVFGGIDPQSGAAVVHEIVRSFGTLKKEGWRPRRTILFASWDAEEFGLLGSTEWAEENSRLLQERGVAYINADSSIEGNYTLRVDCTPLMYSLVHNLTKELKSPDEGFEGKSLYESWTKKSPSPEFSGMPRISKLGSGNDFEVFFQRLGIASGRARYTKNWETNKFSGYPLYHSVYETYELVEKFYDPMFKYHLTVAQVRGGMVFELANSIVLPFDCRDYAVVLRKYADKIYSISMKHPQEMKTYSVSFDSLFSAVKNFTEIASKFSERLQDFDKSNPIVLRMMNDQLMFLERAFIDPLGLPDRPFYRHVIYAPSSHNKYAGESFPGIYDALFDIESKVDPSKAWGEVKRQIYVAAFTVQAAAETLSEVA

Turning to `O=C(O)CC[C@H](NC(=O)N[C@@H](Cc1ccc(I)cc1)C(=O)NCCCCCCNC(=S)Nc1ccc2c(c1)C(=O)OC21c2ccc(O)cc2Oc2cc(O)ccc21)C(=O)O` [compound 1], the results for the Kd in experiment [1] and in experiment [2] were 87 nM and 81 nM, respectively. Moreover, in experiment [3], the “binding to PSMA on the cell surface by flow cytometry” value is reported as “only compound 5 was able to bind”. Besides, in experiment [4], the “binding to human ACP3 by FP” value is “did not bind”.
For `O=C(O)CC[C@H](NC(=O)N[C@@H](Cc1cccc(I)c1)C(=O)NCCCCCCNC(=S)Nc1ccc2c(c1)C(=O)OC21c2ccc(O)cc2Oc2cc(O)ccc21)C(=O)O` [compound 3], in experiment [1], the Kd is 99 nM. For the same compound, the “binding to PSMA on the cell surface by flow cytometry” value in experiment [3] is “only compound 5 was able to bind”. For the same compound, the “binding to human ACP3 by FP” value in experiment [4] is “did not bind”.
On to `NS(=O)(=O)c1ccc(-c2cccc(C[C@H](NC(=O)CCC(=O)N[C@@H](CCCCNC(=S)Nc3ccc4c(c3)C(=O)OC43c4ccc(O)cc4Oc4cc(O)ccc43)C(=O)O)C(=O)NCC3(c4cccs4)CCOCC3)c2)cc1` [compound 20], for which, in experiment [5], the Kd is 2.46 nM.
In the case of `NS(=O)(=O)c1ccc(-c2cccc(C[C@@H](NC(=O)CCC(=O)N[C@@H](CCCCNC(=O)CC[C@H](C(=O)O)N3CCN(CC(=O)O)CCN(CC(=O)O)CCN(CC(=O)O)CC3)C(=O)O)C(=O)NCC3(c4cccs4)CCOCC3)c2)cc1` [compound 22], in experiment [6], the “association rate (kon) on hCAIX by SPR” value was “fast association rates” and the Kd is 50 nM.
The compound `NS(=O)(=O)c1nnc(Nc2cccc(C[C@H](NC(=O)CCC(=O)N[C@@H](CCCCNC(=S)Nc3ccc4c(c3)C(=O)OC43c4ccc(O)cc4Oc4cc(O)ccc43)C(=O)O)C(=O)NCC3(c4cccs4)CCOCC3)c2)s1` [compound 23] showed an equilibrium dissociation constant (Kd) in experiment [5] of 2.06 nM.
`NS(=O)(=O)c1nnc(Nc2cccc(C[C@@H](NC(=O)CCC(=O)N[C@@H](CCCCNC(=S)Nc3ccc4c(c3)C(=O)OC43c4ccc(O)cc4Oc4cc(O)ccc43)C(=O)O)C(=O)NCC3(c4cccs4)CCOCC3)c2)s1` [compound 24]: in experiment [5], binding was characterised by a dissociation constant (Kd) of 1.85 nM. Further, the “binding to CAIX on the cell surface by flow cytometry” value in experiment [7] was “bound to the antigen expressed on the surface of cancer cells”.
For the compound `NS(=O)(=O)c1nnc(Nc2cccc(C[C@@H](NC(=O)CCC(=O)N[C@@H](CCCCNC(=O)CC[C@H](C(=O)O)N3CCN(CC(=O)O)CCN(CC(=O)O)CCN(CC(=O)O)CC3)C(=O)O)C(=O)NCC3(c4cccs4)CCOCC3)c2)s1` [compound 25], in experiment [6], the “association rate (kon) on hCAIX by SPR” value is listed as “fast association rates”, the “dissociation rate (koff) on hCAIX by SPR” value is given as “slower dissociation rate” and the Kd came out at 13 nM.
